From patent US12583921B2, “Targeted anti-SGLT1 avian IgY antibodies as treatment of pre-diabetes, type 2 diabetes and gestational diabetes” (Lay Sciences, Inc., priority 2022, dated 2026) come the findings set out here.

In one series the target is T1, SGLT1 (Homo sapiens, UniProt P13866).
T1 construct: a human intestinal cell line CaCo2, which expresses SGLT1; endogenous in cells; host or cells: CaCo2
T1 sequence (P13866 1-664): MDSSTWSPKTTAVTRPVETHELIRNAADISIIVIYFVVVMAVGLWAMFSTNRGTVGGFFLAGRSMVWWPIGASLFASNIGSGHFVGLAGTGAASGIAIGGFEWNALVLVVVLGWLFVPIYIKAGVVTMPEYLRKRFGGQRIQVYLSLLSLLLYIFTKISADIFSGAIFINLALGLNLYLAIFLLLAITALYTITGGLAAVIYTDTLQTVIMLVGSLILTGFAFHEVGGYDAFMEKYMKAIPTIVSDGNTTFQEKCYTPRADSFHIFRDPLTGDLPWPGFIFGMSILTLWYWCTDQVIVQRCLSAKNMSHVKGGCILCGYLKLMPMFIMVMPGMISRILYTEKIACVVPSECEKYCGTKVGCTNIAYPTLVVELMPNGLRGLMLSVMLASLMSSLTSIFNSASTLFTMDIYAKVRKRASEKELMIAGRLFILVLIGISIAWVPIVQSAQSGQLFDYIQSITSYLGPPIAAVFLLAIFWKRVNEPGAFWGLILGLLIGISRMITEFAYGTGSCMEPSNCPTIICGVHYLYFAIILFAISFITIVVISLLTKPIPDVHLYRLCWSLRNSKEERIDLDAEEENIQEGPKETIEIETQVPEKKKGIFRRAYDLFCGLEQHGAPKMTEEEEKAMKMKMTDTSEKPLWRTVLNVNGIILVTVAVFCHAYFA
Briefly: Inhibition of glucose uptake in human intestinal cell line CaCo2. The note with it: CaCo2 cells; 800 μg/ml; relative to uptake without intervention; FIG. 3. The format is cell-based. The procedure:
The IgY antibodies were then tested for their ability to inhibit the uptake of glucose in a human intestinal cell line CaCo2, which expresses SGLT1. The data in FIG. 3 are shown as percent inhibition of glucose uptake relative to glucose uptake in the absence of any intervention. […] In the figure, ** is P<0.01 Student's t-tests were performed to compare between the glucose inhibition shown by controls, peptide, and different concentration of IgY antibodies.

A further series relates to Wistar rats. Briefly: Oral Glucose Tolerance Test (OGTT) model in Wistar rats, single dose. The series is classed as in vivo. The note with it: for blood glucose level, mean / area under curve, mean: metformin 200 mg/kg, n = 6. The procedure:
An animal study was conducted to assess the effect of administering the anti-SGLT1 IgY antibody in an Oral Glucose Tolerance Test (OGTT) model in Wistar rats. The OGTT test was performed to determine if an intervention has blocked the intestinal absorption of orally given glucose load, and then lowering of the increase in blood glucose levels is observed. […] The OGTT studies were conducted on overnight fasting animals.

How the values of series [1] were obtained: The animals were acclimatized and were randomly distributed into 6 groups, each group comprised of 6 rats. The rats in group G1 served as a normal control group and were administered the vehicle (normal saline) alone at the dose volume of 10 mL/kg, whereas the rats in groups G2 and G3 were administered metformin and anti-SGLT1 IgY antibody, respectively, at the doses of 200 mg/kg and 500 mg/kg body weight for single administration.

The mark [2] stands for this setting: 30, 60, 90 and 120 min after 2 g/kg oral glucose.

Marks after values point to notes of the source that are not given here.

As to “QSGQLFDYIQSITSYLGPP [peptide used as antigen]”, in the series with SGLT1, the “percent inhibition of glucose uptake” value was “able to block the uptake of glucose”.
Consider `CN(C)C(=N)N=C(N)N` [Metformin, metformin], for which the “blood glucose level, mean” value was 108.17 mg/dL in the series on Wistar rats (0 minutes (before glucose 2 gm/kg), anti-SGLT1 IgY 500 mg/kg given 30 min before); 161.67** mg/dL with Wistar rats (30 minutes after glucose 2 gm/kg, anti-SGLT1 IgY 500 mg/kg); 127.17* mg/dL with Wistar rats (60 minutes after glucose 2 gm/kg, anti-SGLT1 IgY 500 mg/kg); 121.50* mg/dL with Wistar rats (90 minutes after glucose 2 gm/kg, anti-SGLT1 IgY 500 mg/kg); 114.00** mg/dL in the series on Wistar rats (120 minutes after glucose 2 gm/kg, anti-SGLT1 IgY 500 mg/kg); 106.33** mg/dL in the series on Wistar rats (180 minutes after glucose 2 gm/kg, anti-SGLT1 IgY 500 mg/kg). For the same molecule, the “area under curve, mean” value with Wistar rats (0 minutes, anti-SGLT1 IgY 500 mg/kg) is listed as 0.00 mg/dL; in the series on Wistar rats (30 minutes, anti-SGLT1 IgY 500 mg/kg), 8.99* mg/dL; with Wistar rats (60 minutes, anti-SGLT1 IgY 500 mg/kg), 9.63** mg/dL; in the series on Wistar rats (90 minutes, anti-SGLT1 IgY 500 mg/kg), 8.29** mg/dL; in the series on Wistar rats (120 minutes, anti-SGLT1 IgY 500 mg/kg) it was 7.85** mg/dL; in the series on Wistar rats (180 minutes, anti-SGLT1 IgY 500 mg/kg), 3.67** mg/dL. In addition, in the series with Wistar rats (setting [2]), the “area under curve compared to normal control group G1” value is recorded as “Significantly decreased”. Further, the “blood glucose level compared to normal control group G1” value in the series on Wistar rats (setting [2]) is recorded as “Significantly decreased”. The Mortality in series [1] (male rats, single dose, metformin 200 mg/kg, anti-SGLT1 IgY 500 mg/kg, deaths/animals observed) was 0/6. In series [1] (male, Wistar, rat, in vivo, 1 day), the “Individual Animal Clinical Signs Observations” value is given as 1. Moreover, the “Body Weights, mean” value in series [1] (rat, in vivo) is 232.63 g.
